Results reported in US10414811B2, “Protease-resistant lipidated GLP-1 analogs” (MEDIMMUNE LIMITED, priority 2015, dated 2019).
Read-outs that look alike come from different tables or passages of the source. Numbered stars: 1 amine (or outer) side, 2 acyl side, 3 side chain; on linkers, the order of the positions; unused ones are H or OH. Square brackets hold non-standard residues; d marks the D form. Side chains are listed from the residue outwards. Peptide text beside a SMILES is read from it. * marks the point of attachment. γGlu = O=C(O)[C@H](CCC(=O)[*:2])N[*:1]; Palmitoyl = CCCCCCCCCCCCCCCC(=O)*; αMeF = C[C@](N)(Cc1ccccc1)C(=O)O; αMeK = C[C@](N)(CCCCN)C(=O)O; Lauroyl = CCCCCCCCCCCC(=O)*; αMeS = C[C@](N)(CO)C(=O)O; AEEA = NCCOCCOCC(=O)O; Aib = CC(C)(N)C(=O)O

Tests used:
Assay type in all cases: cell-based
[1] = target: T1, human glucose-dependent insulinotropic peptide receptor (GIPR) (Homo sapiens, UniProt P48546); test: cAMP assay, human GIPR cells
T1 construct: expressed in transfected cells
T1 sequence (P48546 22-466): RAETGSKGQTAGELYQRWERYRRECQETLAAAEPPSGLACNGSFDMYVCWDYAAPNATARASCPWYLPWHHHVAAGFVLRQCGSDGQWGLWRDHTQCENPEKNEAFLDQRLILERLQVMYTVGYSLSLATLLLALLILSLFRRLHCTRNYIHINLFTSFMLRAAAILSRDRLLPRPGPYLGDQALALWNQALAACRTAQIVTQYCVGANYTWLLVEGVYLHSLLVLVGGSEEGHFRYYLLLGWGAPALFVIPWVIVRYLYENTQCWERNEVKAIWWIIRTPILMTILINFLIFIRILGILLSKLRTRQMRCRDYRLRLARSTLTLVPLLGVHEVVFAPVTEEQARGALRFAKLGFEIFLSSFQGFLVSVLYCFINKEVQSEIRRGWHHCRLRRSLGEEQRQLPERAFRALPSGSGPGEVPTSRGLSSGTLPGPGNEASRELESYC
Summary of the method: (§1)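 Peptide-stimulated cAMP measured by two-step HTRF after a 30 min room-temperature incubation with receptor-expressing cells (hGLP-1R, hGIPR at 1×10^5 cells/ml; hGCGR at 2×10^5 cells/ml). Duplicate dilutions; EC50 from 4-parameter logistic fit of % Delta F.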

[2] = target: T2, GLP-1R (INS1e assay) (Rattus norvegicus, UniProt P32301); test: INS1e assay, cAMP activity at GLP-1R
T2 construct: endogenous in cells; host or cells: INS-1E cells
T2 sequence (P32301 22-463): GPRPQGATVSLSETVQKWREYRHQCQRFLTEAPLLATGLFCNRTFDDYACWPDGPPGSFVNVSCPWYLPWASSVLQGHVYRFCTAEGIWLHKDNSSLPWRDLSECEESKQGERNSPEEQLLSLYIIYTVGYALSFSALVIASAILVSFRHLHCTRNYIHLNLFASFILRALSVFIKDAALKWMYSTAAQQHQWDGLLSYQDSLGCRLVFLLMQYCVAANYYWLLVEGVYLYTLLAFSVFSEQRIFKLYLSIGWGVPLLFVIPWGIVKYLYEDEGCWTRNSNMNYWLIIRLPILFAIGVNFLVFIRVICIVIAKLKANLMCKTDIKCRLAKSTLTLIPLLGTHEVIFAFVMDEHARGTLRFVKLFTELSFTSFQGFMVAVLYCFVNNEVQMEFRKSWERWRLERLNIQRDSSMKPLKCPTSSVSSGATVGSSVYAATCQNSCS
Summary of the method: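 cAMP was quantified by two-step HTRF, using anti-cAMP cryptate donor and cAMP-d2 acceptor, each diluted 1/20 in conjugate and lysis buffer. EC50 values of the synthetic peptides were derived from the cAMP readout.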

[3] = target: T3, human GLP-1 receptor (GLP-1R) (Homo sapiens, UniProt P43220); test: cAMP assay, human GLP-1R cells
T3 construct: expressed in transfected cells
Summary of the method: as §1

[4] = target: T4, human glucagon receptor (GCGR) (Homo sapiens, UniProt P47871); test: cAMP assay, human GCGR cells
T4 construct: expressed in transfected cells
Summary of the method: as §1

[5] = cAMP assay, first determination (n1), read-out: Primary assay EC50 GIP-R (n1)
[6] = cAMP assay, second determination (n2), read-out: Primary assay EC50 GIP-R (n2)
[7] = mono-lipidated peptides, mean of n1 and n2, read-out: INS1e assay EC50 Mean pM GLP-1R
[8] = mono-lipidated peptides, replicate n1, read-out: INS1e assay EC50 GLP-1R n1
[9] = mono-lipidated peptides, replicate n2, read-out: INS1e assay EC50 GLP-1R n2
[10] = cAMP assay, first determination (n1), read-out: Primary assay EC50 GLP-1R n1
[11] = cAMP assay, second determination (n2), read-out: Primary assay EC50 GLP-1R n2
[12] = mean of n1 and n2, read-out: Mean pM GLP-1R
[13] = cAMP assay, first determination (n1), read-out: Primary assay EC50 Gluc-R (n1)
[14] = cAMP assay, second determination (n2), read-out: Primary assay EC50 Gluc-R (n2)

T3 sequence (P43220 24-463): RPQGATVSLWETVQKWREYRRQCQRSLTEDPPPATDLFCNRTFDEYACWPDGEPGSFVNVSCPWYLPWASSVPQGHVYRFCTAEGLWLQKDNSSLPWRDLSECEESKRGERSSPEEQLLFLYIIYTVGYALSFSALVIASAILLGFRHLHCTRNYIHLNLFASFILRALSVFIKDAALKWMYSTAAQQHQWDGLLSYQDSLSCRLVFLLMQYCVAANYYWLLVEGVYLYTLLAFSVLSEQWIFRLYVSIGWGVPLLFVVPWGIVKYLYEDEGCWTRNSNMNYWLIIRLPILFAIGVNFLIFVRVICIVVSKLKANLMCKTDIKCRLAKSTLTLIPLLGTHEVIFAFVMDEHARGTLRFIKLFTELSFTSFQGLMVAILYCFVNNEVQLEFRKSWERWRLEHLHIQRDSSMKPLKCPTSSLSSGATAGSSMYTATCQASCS
T4 sequence (P47871 26-477): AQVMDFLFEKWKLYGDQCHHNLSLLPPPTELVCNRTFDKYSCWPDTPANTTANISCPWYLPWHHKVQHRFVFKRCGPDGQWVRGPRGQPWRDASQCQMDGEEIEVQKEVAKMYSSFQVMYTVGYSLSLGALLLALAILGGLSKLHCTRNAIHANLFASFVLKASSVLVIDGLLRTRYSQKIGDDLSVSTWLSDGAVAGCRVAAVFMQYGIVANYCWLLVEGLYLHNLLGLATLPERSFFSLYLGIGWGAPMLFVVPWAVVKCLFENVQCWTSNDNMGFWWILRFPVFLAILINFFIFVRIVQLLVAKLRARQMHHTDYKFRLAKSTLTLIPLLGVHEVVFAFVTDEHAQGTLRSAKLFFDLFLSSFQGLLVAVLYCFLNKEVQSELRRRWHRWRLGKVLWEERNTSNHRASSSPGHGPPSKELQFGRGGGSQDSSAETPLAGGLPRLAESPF

Row | Structure (SMILES) | EC50 [1, 5] | EC50 [1, 6] | EC50 [2, 7] | EC50 [2, 8] | EC50 [2, 9] | EC50 [3, 10] | EC50 [3, 11] | EC50 [3, 12] | EC50 [4, 13] | EC50 [4, 14] | other results
1 | CCCCCCCCCCCC(=O)NCCOCCOCC(=O)NCCOCCOCC(=O)NCCCC[C@H](NC(=O)[C@H](C)NC(=O)[C@H](C)NC(=O)[C@H](CCC(=O)O)NC(=O)CNC(=O)[C@H](CCC(=O)O)NC(=O)[C@H](CC(C)C)NC(=O)[C@](C)(Cc1ccccc1)NC(=O)[C@H](CO)NC(=O)[C@](C)(CO)NC(=O)[C@@H](NC(=O)[C@H](CC(=O)O)NC(=O)[C@H](CO)NC(=O)[C@@H](NC(=O)[C@](C)(Cc1ccccc1)NC(=O)[C@H](CO)NC(=O)CNC(=O)[C@H](CCC(=O)O)NC(=O)C(C)(C)NC(=O)[C@@H](N)Cc1c[nH]cn1)[C@@H](C)O)C(C)C)C(=O)N[C@@H](CCC(=O)O)C(=O)N[C@@](C)(Cc1ccccc1)C(=O)N[C@H](C(=O)N[C@@H](C)C(=O)N[C@@](C)(Cc1ccccc1)C(=O)N[C@H](C(=O)N[C@H](C(=O)N[C@@](C)(CCCCN)C(=O)NCC(=O)NCC(N)=O)C(C)C)C(C)C)[C@@H](C)CC [compound 135] | ≥ 27 nM | ≥ 27 nM | 79 pM | 98.6 pM | 59.3 pM | 5.4 pM | 4.5 pM | 5 pM | ≥ 27 nM | ≥ 27 nM | –
2 | CC[C@H](C)[C@H](NC(=O)[C@](C)(Cc1ccccc1)NC(=O)[C@H](CCC(=O)O)NC(=O)[C@](C)(CCCCN)NC(=O)[C@H](C)NC(=O)[C@H](C)NC(=O)[C@H](CCC(=O)O)NC(=O)CNC(=O)[C@H](CCC(=O)O)NC(=O)[C@H](CC(C)C)NC(=O)[C@](C)(Cc1ccccc1)NC(=O)[C@H](CO)NC(=O)[C@](C)(CO)NC(=O)[C@@H](NC(=O)[C@H](CC(=O)O)NC(=O)[C@H](CO)NC(=O)[C@@H](NC(=O)[C@](C)(Cc1ccccc1)NC(=O)[C@H](CO)NC(=O)CNC(=O)[C@H](CCC(=O)O)NC(=O)C(C)(C)NC(=O)[C@@H](N)Cc1c[nH]cn1)[C@@H](C)O)C(C)C)C(=O)N[C@@H](C)C(=O)N[C@@H](CCCCNC(=O)COCCOCCNC(=O)COCCOCCNC(=O)CC[C@H](NC(=O)CCCCCCCCCCCCCCCCC(=O)O)C(=O)O)C(=O)N[C@H](C(=O)N[C@H](C(=O)N[C@@](C)(CCCCN)C(=O)NCC(=O)NCC(N)=O)C(C)C)C(C)C [compound 104] | ≥ 26 nM | ≥ 25.6 nM | 331 pM | 391 pM | 270 pM | 5.9 pM | – | – | ≥ 26 nM | ≥ 25.6 nM | –
3 | CC[C@H](C)[C@H](NC(=O)[C@](C)(Cc1ccccc1)NC(=O)[C@H](CCC(=O)O)NC(=O)[C@H](CCCCNC(=O)CCCCCNC(=O)CCCCCNC(=O)CCCCCCCCCCCOc1ccc(C(=O)O)cc1)NC(=O)[C@H](C)NC(=O)[C@H](C)NC(=O)[C@H](CCC(=O)O)NC(=O)CNC(=O)[C@H](CCC(=O)O)NC(=O)[C@H](CC(C)C)NC(=O)[C@](C)(Cc1ccccc1)NC(=O)[C@H](CO)NC(=O)[C@](C)(CO)NC(=O)[C@@H](NC(=O)[C@H](CC(=O)O)NC(=O)[C@H](CO)NC(=O)[C@@H](NC(=O)[C@](C)(Cc1ccccc1)NC(=O)[C@H](CO)NC(=O)CNC(=O)[C@H](CCC(=O)O)NC(=O)C(C)(C)NC(=O)[C@@H](N)Cc1c[nH]cn1)[C@@H](C)O)C(C)C)C(=O)N[C@@H](C)C(=O)N[C@@](C)(Cc1ccccc1)C(=O)N[C@H](C(=O)N[C@H](C(=O)N[C@@](C)(CCCCN)C(=O)NCC(=O)NCC(N)=O)C(C)C)C(C)C [compound 141] | – | – | 41 pM | 44.7 pM | 36.7 pM | 8.7 pM | 5 pM | 6.9 pM | – | – | EC50 ([1]; Primary assay EC50 GIP-R (n1), cAMP assay, first determination (n1)): ≥ 27 nM; EC50 ([1]; read-out: Primary assay EC50 GIP-R (n2), cAMP assay, second determination (n2)): ≥ 27 nM; EC50 ([4]; Primary assay EC50 Gluc-R (n1), cAMP assay, first determination (n1)): ≥ 27 nM; EC50 ([4]; read-out: Primary assay EC50 Gluc-R (n2), cAMP assay, second determination (n2)): ≥ 27 nM
4 | CCCCCCCCCCCCCCCC(=O)N[C@@H](CCC(=O)NCCCC[C@H](NC(=O)[C@](C)(CCCCN)NC(=O)[C@H](C)NC(=O)[C@H](C)NC(=O)[C@H](CCC(=O)O)NC(=O)CNC(=O)[C@H](CCC(=O)O)NC(=O)[C@H](CC(C)C)NC(=O)[C@](C)(Cc1ccccc1)NC(=O)[C@H](CO)NC(=O)[C@](C)(CO)NC(=O)[C@@H](NC(=O)[C@H](CC(=O)O)NC(=O)[C@H](CO)NC(=O)[C@@H](NC(=O)[C@](C)(Cc1ccccc1)NC(=O)[C@H](CO)NC(=O)CNC(=O)[C@H](CCC(=O)O)NC(=O)C(C)(C)NC(=O)[C@@H](N)Cc1c[nH]cn1)[C@@H](C)O)C(C)C)C(=O)N[C@@](C)(Cc1ccccc1)C(=O)N[C@H](C(=O)N[C@@H](C)C(=O)N[C@@](C)(Cc1ccccc1)C(=O)N[C@H](C(=O)N[C@H](C(=O)N[C@@](C)(CCCCN)C(=O)NCC(=O)NCC(N)=O)C(C)C)C(C)C)[C@@H](C)CC)C(=O)O [compound 79] (H-H[Aib]EGS[αMeF]TSDV[αMeS]S[αMeF]LEGEAA[αMeK]K([γGlu-Palmitoyl])[αMeF]IA[αMeF]VV[αMeK]GG-NH2) | ≥ 28 nM | ≥ 28 nM | 408 pM | 289 pM | 527 pM | 3.9 pM | 2.3 pM | 3.1 pM | ≥ 28 nM | ≥ 28 nM | –
5 | CCCCCCCCCCCC(=O)N[C@@H](CCC(=O)NCCOCCOCC(=O)NCCOCCOCC(=O)NCCCC[C@H](NC(=O)[C@H](Cc1ccc(O)cc1)NC(=O)[C@H](CO)NC(=O)[C@](C)(CO)NC(=O)[C@@H](NC(=O)[C@H](CC(=O)O)NC(=O)[C@H](CO)NC(=O)[C@@H](NC(=O)[C@](C)(Cc1ccccc1)NC(=O)[C@H](CO)NC(=O)CNC(=O)[C@H](CCC(=O)O)NC(=O)C(C)(C)NC(=O)[C@@H](N)Cc1c[nH]cn1)[C@@H](C)O)C(C)C)C(=O)N[C@@H](CCC(=O)O)C(=O)NCC(=O)N[C@@H](CCC(=O)O)C(=O)N[C@@H](C)C(=O)N[C@@H](C)C(=O)N[C@@](C)(CCCCN)C(=O)N[C@@H](CCCCNC(=O)COCCOCCNC(=O)COCCOCCNC(=O)CC[C@H](NC(=O)CCCCCCCCCCC)C(=O)O)C(=O)N[C@@H](Cc1ccccc1)C(=O)N[C@H](C(=O)N[C@@H](CCCCNC(=O)COCCOCCNC(=O)COCCOCCNC(=O)CC[C@H](NC(=O)CCCCCCCCCCC)C(=O)O)C(=O)N[C@@H](Cc1ccccc1)C(=O)N[C@H](C(=O)N[C@H](C(=O)N[C@@H](CCC(=O)O)C(=O)NCC(=O)NCC(N)=O)C(C)C)C(C)C)[C@@H](C)CC)C(=O)O [compound 454] (H-H[Aib]EGS[αMeF]TSDV[αMeS]SYK([AEEA-AEEA-γGlu-Lauroyl])EGEAA[αMeK]K([AEEA-AEEA-γGlu-Lauroyl])FIK([AEEA-AEEA-γGlu-Lauroyl])FVVEGG-NH2) | – | – | – | – | – | – | – | – | – | – | EC50 ([1]; tris-lipidated peptides, first replicate, read-out: Primary assay EC50 GIP-R (n1)): 19.7 nM; EC50 ([2]; tris-lipidated peptides, mean of n1 and n2, read-out: INS1e assay EC50 Mean pM GLP-1R): 5550 pM; EC50 ([2]; tris-lipidated peptides, replicate n1, read-out: INS1e assay EC50 GLP-1R n1): 4100 pM; EC50 ([2]; tris-lipidated peptides, replicate n2, read-out: INS1e assay EC50 GLP-1R n2): 6990 pM; EC50 ([3]; tris-lipidated peptides, mean of n1 and n2, read-out: Primary assay EC50 Mean pM GLP-1R): 43.7 pM; EC50 ([3]; tris-lipidated peptides, replicate n1, read-out: Primary assay EC50 GLP-1R n1): 22.1 pM; EC50 ([3]; tris-lipidated peptides, replicate n2, read-out: Primary assay EC50 GLP-1R n2): 65.2 pM; EC50 ([4]; tris-lipidated peptides, second replicate, read-out: Primary assay EC50 Gluc-R (n2)): 19.7 nM
